Read-outs that look alike come from different tables or passages of the source.
What was measured:
[1] = system: luminal, basal, claudin-low and ERBB2AMP breast cancer cell lines; assay: Associations of clinically relevant subtypes and response (non-parametric ANOVA or t-test on GI50 ranks); assay type: cell-based, human; details: for Subtype specificity: Table 6, most sensitive subtype, FDR p<0.20
In short: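 GI50 values were compared between cell-line subtype groups by non-parametric ANOVA or t-test on ranks. P-values from three test sets were combined and FDR-corrected. Significant three-group effects were followed by post-hoc comparison of each group against all others, and FDR p<0.20 counted as significant.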

[2] = system: panel of 55 breast cancer cell lines; assay: Cell growth inhibition assay (Cell Titer Glo, 72 h, 9 doses; GI50, TGI, LC50); assay type: cell-based, human

## NC(=O)Nc1sc(-c2ccc(F)cc2)cc1C(N)=O [TPCA-1]
[1]
  Subtype specificity: Basal + Claudin-low
[2]; BT20 cell line, censored GI50 values, value is the negative log10 of mol/L
  GI50: 4.36
[2]; HCC38 cell line, censored GI50 values, value is the negative log10 of mol/L
  GI50: 5.50
[2]; HCC70 cell line, censored GI50 values, value is the negative log10 of mol/L
  GI50: 5.44
[2]; HCC1143 cell line, censored GI50 values, value is the negative log10 of mol/L
  GI50: 5.07
[2]; HCC1187 cell line, censored GI50 values, value is the negative log10 of mol/L
  GI50: 5.67
[2]; HCC1395 cell line, censored GI50 values, value is the negative log10 of mol/L
  GI50: 5.22
[2]; HCC1419 cell line, censored GI50 values, value is the negative log10 of mol/L
  GI50: 5.53
[2]; HCC1428 cell line, censored GI50 values, value is the negative log10 of mol/L
  GI50: 5.45
[2]; HCC1500 cell line, censored GI50 values, value is the negative log10 of mol/L
  GI50: 5.39
[2]; HCC1806 cell line, censored GI50 values, value is the negative log10 of mol/L
  GI50: 5.34
[2]; HCC1954 cell line, censored GI50 values, value is the negative log10 of mol/L
  GI50: 4.77
[2]; HCC2185 cell line, censored GI50 values, value is the negative log10 of mol/L
  GI50: 5.36
[2]; HCC3153 cell line, censored GI50 values, value is the negative log10 of mol/L
  GI50: 4.87
[2]; LY2 cell line, censored GI50 values, value is the negative log10 of mol/L
  GI50: 4.54
[2]; MDAMB134VI cell line, censored GI50 values, value is the negative log10 of mol/L
  GI50: 4.79
[2]; MDAMB231 cell line, censored GI50 values, value is the negative log10 of mol/L
  GI50: 4.45
[2]; MDAMB361 cell line, censored GI50 values, value is the negative log10 of mol/L
  GI50: 4.18
[2]; MDAMB436 cell line, censored GI50 values, value is the negative log10 of mol/L
  GI50: 5.16
[2]; MDAMB468 cell line, censored GI50 values, value is the negative log10 of mol/L
  GI50: 5.94
[2]; SUM52PE cell line, censored GI50 values, value is the negative log10 of mol/L
  GI50: 6.25
[2]; SUM149PT cell line, censored GI50 values, value is the negative log10 of mol/L
  GI50: 5.78
[2]; SUM159PT cell line, censored GI50 values, value is the negative log10 of mol/L
  GI50: 5.81
[2]; SUM1315MO2 cell line, censored GI50 values, value is the negative log10 of mol/L
  GI50: 6.09
[2]; UACC893 cell line, censored GI50 values, value is the negative log10 of mol/L
  GI50: 5.21
[2]; cell line 600MPE, value is the negative log10 of mol/L
  GI50: 4.18
[2]; cell line AU565, value is the negative log10 of mol/L
  GI50: 4.18
[2]; cell line BT20, value is the negative log10 of mol/L
  GI50: 4.36
[2]; cell line BT474, value is the negative log10 of mol/L
  GI50: 4.18
[2]; cell line BT549, value is the negative log10 of mol/L
  GI50: 4.18
[2]; cell line HCC38, value is the negative log10 of mol/L
  GI50: 5.50
[2]; cell line HCC70, value is the negative log10 of mol/L
  GI50: 5.44
[2]; cell line HCC202, value is the negative log10 of mol/L
  GI50: 3.88
[2]; cell line HCC1143, value is the negative log10 of mol/L
  GI50: 5.07
[2]; cell line HCC1187, value is the negative log10 of mol/L
  GI50: 5.67
[2]; cell line HCC1395, value is the negative log10 of mol/L
  GI50: 5.22
[2]; cell line HCC1419, value is the negative log10 of mol/L
  GI50: 5.53
[2]; cell line HCC1428, value is the negative log10 of mol/L
  GI50: 5.45
[2]; cell line HCC1500, value is the negative log10 of mol/L
  GI50: 5.39
[2]; cell line HCC1806, value is the negative log10 of mol/L
  GI50: 5.34
[2]; cell line HCC1937, value is the negative log10 of mol/L
  GI50: 4.18
[2]; cell line HCC1954, value is the negative log10 of mol/L
  GI50: 4.77
[2]; cell line HCC2185, value is the negative log10 of mol/L
  GI50: 5.36
[2]; cell line HCC3153, value is the negative log10 of mol/L
  GI50: 4.87
[2]; cell line LY2, value is the negative log10 of mol/L
  GI50: 4.54

## CN(C)C/C=C/C(=O)Nc1cc2c(Nc3ccc(F)c(Cl)c3)ncnc2cc1O[C@H]1CCOC1 [BIBW 2992]
[1]
  association of response with ERBB2 amplification: positively associated with ERBB2 amplification
  Subtype specificity: ERBB2AMP
[2]; Homo sapiens, BT-20, BT20 cell line, censored GI50 values, read-out: GI50 (converted)
  GI50: 2750 nM
[2]; Homo sapiens, BT-20, cell line BT20, read-out: GI50 (converted)
  GI50: 2750 nM
[2]; Homo sapiens, BT-474, BT474 cell line, censored GI50 values, read-out: GI50 (converted)
  GI50: 5.89 nM
[2]; Homo sapiens, BT-474, cell line BT474, read-out: GI50 (converted)
  GI50: 5.89 nM
[2]; Homo sapiens, BT-483, BT483 cell line, censored GI50 values, read-out: GI50 (converted)
  GI50: 1660 nM
[2]; Homo sapiens, BT-483, cell line BT483, read-out: GI50 (converted)
  GI50: 1660 nM
[2]; Homo sapiens, CAMA-1, CAMA1 cell line, censored GI50 values, read-out: GI50 (converted)
  GI50: 2240 nM
[2]; Homo sapiens, CAMA-1, cell line CAMA1, read-out: GI50 (converted)
  GI50: 2240 nM
[2]; Homo sapiens, HCC38, HCC38 cell line, censored GI50 values, read-out: GI50 (converted)
  GI50: 1820 nM
[2]; Homo sapiens, HCC38, cell line HCC38, read-out: GI50 (converted)
  GI50: 1820 nM
[2]; Homo sapiens, HCC70, HCC70 cell line, censored GI50 values, read-out: GI50 (converted)
  GI50: 468 nM
[2]; Homo sapiens, HCC70, cell line HCC70, read-out: GI50 (converted)
  GI50: 468 nM
[2]; Homo sapiens, HCC1143, HCC1143 cell line, censored GI50 values, read-out: GI50 (converted)
  GI50: 1380 nM
[2]; Homo sapiens, HCC1143, cell line HCC1143, read-out: GI50 (converted)
  GI50: 1380 nM
[2]; Homo sapiens, HCC1419, HCC1419 cell line, censored GI50 values, read-out: GI50 (converted)
  GI50: 2.95 nM
[2]; Homo sapiens, HCC1419, cell line HCC1419, read-out: GI50 (converted)
  GI50: 2.95 nM
[2]; Homo sapiens, HCC1428, HCC1428 cell line, censored GI50 values, read-out: GI50 (converted)
  GI50: 1740 nM
[2]; Homo sapiens, HCC1428, cell line HCC1428, read-out: GI50 (converted)
  GI50: 1740 nM
[2]; Homo sapiens, HCC1500, HCC1500 cell line, censored GI50 values, read-out: GI50 (converted)
  GI50: 339 nM
[2]; Homo sapiens, HCC1500, cell line HCC1500, read-out: GI50 (converted)
  GI50: 339 nM
[2]; Homo sapiens, HCC1806, HCC1806 cell line, censored GI50 values, read-out: GI50 (converted)
  GI50: 537 nM
[2]; Homo sapiens, HCC1806, cell line HCC1806, read-out: GI50 (converted)
  GI50: 537 nM
[2]; Homo sapiens, HCC1937, HCC1937 cell line, censored GI50 values, read-out: GI50 (converted)
  GI50: 2090 nM
[2]; Homo sapiens, HCC1937, cell line HCC1937, read-out: GI50 (converted)
  GI50: 2090 nM
[2]; Homo sapiens, HCC1954, HCC1954 cell line, censored GI50 values, read-out: GI50 (converted)
  GI50: 123 nM
[2]; Homo sapiens, HCC1954, cell line HCC1954, read-out: GI50 (converted)
  GI50: 123 nM
[2]; Homo sapiens, HCC2185 cell line, censored GI50 values, read-out: GI50 (converted)
  GI50: 1380 nM
[2]; Homo sapiens, MDA-MB-134-VI, MDAMB134VI cell line, censored GI50 values, read-out: GI50 (converted)
  GI50: 3630 nM
[2]; Homo sapiens, MDA-MB-175-VII, MDAMB175VII cell line, censored GI50 values, read-out: GI50 (converted)
  GI50: 4.47 nM
[2]; Homo sapiens, MDA-MB-436, MDAMB436 cell line, censored GI50 values, read-out: GI50 (converted)
  GI50: 3720 nM
[2]; Homo sapiens, MDA-MB-436, cell line MDAMB436, read-out: GI50 (converted)
  GI50: 3720 nM
[2]; Homo sapiens, MDA-MB-453, MDAMB453 cell line, censored GI50 values, read-out: GI50 (converted)
  GI50: 91.2 nM
[2]; Homo sapiens, MDA-MB-453, cell line MDAMB453, read-out: GI50 (converted)
  GI50: 91.2 nM
[2]; Homo sapiens, MDA-MB-468, MDAMB468 cell line, censored GI50 values, read-out: GI50 (converted)
  GI50: 631 nM
[2]; Homo sapiens, MDA-MB-468, cell line MDAMB468, read-out: GI50 (converted)
  GI50: 631 nM
[2]; Homo sapiens, SK-BR-3, SKBR3 cell line, censored GI50 values, read-out: GI50 (converted)
  GI50: 13.2 nM
[2]; Homo sapiens, SK-BR-3, cell line SKBR3, read-out: GI50 (converted)
  GI50: 13.2 nM
[2]; Homo sapiens, SUM52PE, SUM52PE cell line, censored GI50 values, read-out: GI50 (converted)
  GI50: 3390 nM
[2]; Homo sapiens, SUM52PE, cell line SUM52PE, read-out: GI50 (converted)
  GI50: 3390 nM
[2]; Homo sapiens, SUM149PT, SUM149PT cell line, censored GI50 values, read-out: GI50 (converted)
  GI50: 74.1 nM
[2]; Homo sapiens, SUM149PT, cell line SUM149PT, read-out: GI50 (converted)
  GI50: 74.1 nM
[2]; Homo sapiens, SUM185PE, SUM185PE cell line, censored GI50 values, read-out: GI50 (converted)
  GI50: 5620 nM
[2]; Homo sapiens, SUM185PE, cell line SUM185PE, read-out: GI50 (converted)
  GI50: 5620 nM
[2]; Homo sapiens, SUM225CWN, SUM225CWN cell line, censored GI50 values, read-out: GI50 (converted)
  GI50: 9.33 nM
[2]; Homo sapiens, SUM225CWN, cell line SUM225CWN, read-out: GI50 (converted)
  GI50: 9.33 nM
[2]; Homo sapiens, SUM1315MO2, SUM1315MO2 cell line, censored GI50 values, read-out: GI50 (converted)
  GI50: 162 nM
[2]; Homo sapiens, SUM-159-PT, SUM159PT cell line, censored GI50 values, read-out: GI50 (converted)
  GI50: 2570 nM
[2]; Homo sapiens, SUM-159-PT, cell line SUM159PT, read-out: GI50 (converted)
  GI50: 2570 nM
[2]; Homo sapiens, UACC-812, UACC812 cell line, censored GI50 values, read-out: GI50 (converted)
  GI50: 2.82 nM
[2]; Homo sapiens, UACC-812, cell line UACC812, read-out: GI50 (converted)
  GI50: 2.82 nM
[2]; Homo sapiens, ZR-75-1, ZR751 cell line, censored GI50 values, read-out: GI50 (converted)
  GI50: 2340 nM
[2]; Homo sapiens, ZR-75-1, cell line ZR751, read-out: GI50 (converted)
  GI50: 2340 nM
[2]; Homo sapiens, ZR-75B, ZR75B cell line, censored GI50 values, read-out: GI50 (converted)
  GI50: 3020 nM
[2]; Homo sapiens, ZR-75B, cell line ZR75B, read-out: GI50 (converted)
  GI50: 3020 nM
[2]; Homo sapiens, cell line HCC2185, read-out: GI50 (converted)
  GI50: 1380 nM
[2]; Homo sapiens, cell line MDAMB134V, read-out: GI50 (converted)
  GI50: 3630 nM
[2]; Homo sapiens, cell line MDAMB175V, read-out: GI50 (converted)
  GI50: 4.47 nM
[2]; Homo sapiens, cell line SUM1315MO, read-out: GI50 (converted)
  GI50: 162 nM
